Data published in patent publication US7348322B2, “Glucocorticoid receptor modulators as antiinflammatory agents” (Roche Palo Alto LLC, priority 2005, dated 2008).

Target: T1, Human recombinant purified glucocorticoid receptor (Homo sapiens, UniProt P04150)
T1 sequence (P04150 1-777): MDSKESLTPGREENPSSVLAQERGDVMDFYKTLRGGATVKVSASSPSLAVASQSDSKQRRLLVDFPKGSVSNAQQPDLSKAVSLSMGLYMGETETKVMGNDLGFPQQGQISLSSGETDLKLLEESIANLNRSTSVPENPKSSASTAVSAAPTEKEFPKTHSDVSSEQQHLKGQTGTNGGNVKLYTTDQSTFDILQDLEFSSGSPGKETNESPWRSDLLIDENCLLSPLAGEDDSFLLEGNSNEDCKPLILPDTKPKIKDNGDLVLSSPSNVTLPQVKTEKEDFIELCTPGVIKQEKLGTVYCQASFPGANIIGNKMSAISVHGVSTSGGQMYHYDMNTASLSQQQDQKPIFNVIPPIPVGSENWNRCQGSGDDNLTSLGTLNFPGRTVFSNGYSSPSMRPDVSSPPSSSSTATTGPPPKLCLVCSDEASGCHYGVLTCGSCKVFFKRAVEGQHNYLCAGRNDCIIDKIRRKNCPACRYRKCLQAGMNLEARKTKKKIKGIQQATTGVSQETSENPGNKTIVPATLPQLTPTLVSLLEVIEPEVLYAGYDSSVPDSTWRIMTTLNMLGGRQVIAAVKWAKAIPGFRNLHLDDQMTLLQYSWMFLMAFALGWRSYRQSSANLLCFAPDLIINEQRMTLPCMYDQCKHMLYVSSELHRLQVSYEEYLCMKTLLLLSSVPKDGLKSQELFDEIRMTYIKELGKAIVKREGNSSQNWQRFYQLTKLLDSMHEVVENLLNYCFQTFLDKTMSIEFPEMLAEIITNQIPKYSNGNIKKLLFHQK
Assay: Glucocorticoid receptor competitive binding assay (3H-dexamethasone)
Details: competition with 2 nM 3H-Dexamethasone, 1 nM GR, 4° C. overnight; read-out: Binding Affinity Ki
Method: The affinity of glucocorticoid receptor antagonists for the glucocorticoid receptor was determined in competitive binding assays by the ability of the antagonist to compete with tritiated dexamethasone.
All assay steps were performed on ice in 96-well plates. Binding buffer contained 10 mM potassium phosphate pH 7.4, 20 mM Na2Mo4, 100 μM EDTA, 2% DMSO, and 5 mM DTT. Human recombinant purified glucocorticoid receptor was used at 1 nM. Compounds tested had up to 2% DMSO final concentration. Non-specific binding condition was 1 μM dexamethasone. The radioligand used for the competition assay was 2 nM ^3H-Dexamethasone (83 Ci/mmol stock solution). Buffer, compounds or vehicles, GR, and radioligand were incubated at 4° C. overnight. Unifilter GF/B 96-well filter plates were treated with 0.5% PEI after incubation. Samples were transferred to filter plates by a cell harvester. Filter plates were washed five times with 50 mM Tris pH 7.5 and 5 mM EDTA wash buffer. Samples were dried at 65° C. for about 1 hr. Scintillation fluid was added to filter plates at 50 μL/ well and ^3H cpm were measured on the TopCount scintillation counter.

Work on `ON=C(CNc1ccc(-c2cnco2)cc1)CC1(c2ccccc2C(F)(F)F)CCC1` (racemic) [Example 4, 1-(4-Oxazol-5-yl-phenylamino)-3-[1-(2-trifluoromethyl-phenyl)-cyclobutyl]-propan-2-one oxime] yielded a Ki of 851 nM.

For `Cc1noc(=O)c2ccc(NCC(=O)CC3(c4ccccc4C(F)(F)F)CCC3)cc12` [Example 1, 4-Methyl-6-{2-oxo-3-[1-(2-trifluoromethyl-phenyl)-cyclobutyl]-propylamino}-benzo[d][1,2]oxazin-1-one], the Ki was 405 nM.

`Cc1noc(=O)c2ccc(NC/C(CC3(c4ccccc4C(F)(F)F)CCC3)=N\O)cc12` [Example 2, 1-(4-Methyl-1-oxo-1H-benzo[d][1,2]oxazin-6-ylamino)-3-[1-(2-trifluoromethyl-phenyl)-cyclobutyl]propan-2-one oxime] was tested, and the Ki was 89 nM.

With `O/N=C(\CNc1cccc(-c2cnco2)c1)CC1(c2ccccc2C(F)(F)F)CCC1` [Example 3, 1-(3-Oxazol-5-yl-phenylamino)-3-[1-(2-trifluoromethyl-phenyl)-cyclobutyl]-propan-2-one oxime] the Ki was 2100 nM.

For `O=C(CC1(c2ccccc2C(F)(F)F)CCC1)C(=O)Nc1ccc(-c2cnco2)cc1` [Example 5, N-(4-Oxazol-5-yl-phenyl)-2-oxo-3-[1-(2-trifluoromethyl-phenyl)-cyclobutyl]-propionamide], the Ki was 723 nM.

`O=C(CC1(c2ccccc2C(F)(F)F)CCC1)C(=O)Nc1cccc(-c2ccno2)c1` [Example 6, N-(3-Isoxazol-5-yl-phenyl)-2-oxo-3-[1-(2-trifluoromethyl-phenyl)-cyclobutyl]-propionamide] was tested, and the Ki was 2400 nM.
